From US20070249501A1 (priority 2004, published 2007)

How the values were obtained:
Sclerotium rolfsii = assay type: cell-based
[1] = tested on: Fusarium oxysporum f. sp. radicis-lycopersici (FORL); assay type: cell-based
[2] = tested on: microbial populations in soil; assay type: cell-based
[3] = tested on: tomato (cv. 870) seedlings; details: in vivo
[4] = tested on: root-knot nematode Meloidogyne javanica; details: in vivo

Row | Compound | reduction of microbial populations in soil [2] | further results
1 | O=[N+]([O-])CBr [monobromonitromethane, bromonitromethane] |  | control of S. rolfosii in soil (percent survival, FIG. 6) (Sclerotium rolfsii): effective in controlling soil-borne fungi; control of FORL in soil (percent survival, FIG. 6) [1]: effective in controlling soil-borne fungi
2 | C[N+](=O)[O-] [nitromethane] |  | control of S. rolfosii in soil (percent survival, FIG. 6) (Sclerotium rolfsii): no effect in controlling pests; control of FORL in soil (percent survival, FIG. 6) [1]: no effect in controlling pests
3 | CN1CSC(=S)N(C)C1 [Dazomet, dazomet] |  | effect on population densities of FORL, Verticillium dahliae, Macrophomina phaseolina and Streptomyces spp. in soil (FIG. 3) [2]: the effect of bromopicrin was similar to the effect of the commercial fumigant Basamid
4 | tetramethylammonium bromide [TMBr] | none of the tested industrial biocides was capable of significantly reducing microbial populations in soil | 
5 | ClCCBr [BCE, ethylene bromochloride] | none of the tested industrial biocides was capable of significantly reducing microbial populations in soil | root system development in treated soil [3]: substantially stunted root system
6 | tetrabromoethane [TBE] | none of the tested industrial biocides was capable of significantly reducing microbial populations in soil | 
7 | COc1ccc(C=CC(=O)O)cc1 [MCA, methoxy cinnamic acid] | none of the tested industrial biocides was capable of significantly reducing microbial populations in soil | 
8 | ClC=CCCl [1,3-dichloropropene] |  | galling index of tomato plant roots [4]: zero
9 | OCC(CBr)(CBr)CBr [TBNPA, tribromoneopentyl alcohol] | none of the tested industrial biocides was capable of significantly reducing microbial populations in soil | 
10 | O=S([O-])S(=O)(=O)[O-].[K+].[K+] [PMS, potassium metabisulfite] | none of the tested industrial biocides was capable of significantly reducing microbial populations in soil | root system development in treated soil [3]: substantially stunted root system
11 | OCC(CO)(CBr)CBr [DBNPG, dibromoneopentyl glycol] | none of the tested industrial biocides was capable of significantly reducing microbial populations in soil | 
12 | BrC(Br)Br [BF, bromoform] | none of the tested industrial biocides was capable of significantly reducing microbial populations in soil | 
